{"source": "patent US20110098177A1", "about": "“METHODS AND COMPOSITIONS OF PLANT MICRONUTRIENTS” (NOVUS INTERNATIONAL INC., priority 2006, published 2011)", "type_in_all_cases": "in vivo", "conditions_in_all_cases": "in vivo", "key": {"[1]": {"system": "Patriot bell pepper plants", "assay": "Foliar nutrient concentration at 6 WAT, open-field bell pepper (Examples 7-10)", "experimental": "(§1) The following experiments were performed in open-field plots during the spring of 2008 at GCREC, Balm, University of Florida. Four products delivering Zn (BIOX-Z), Mn (BIOX-M), Cu (BIOX-Cu), and Fe (BIOX-Fe) were compared to other micronutrient supplement formulations in tomato and bell pepper plants.\n(§2) The plot sizes for the tomato plants were 30-ft plots (15 plants per plot) and 15-ft plots were used for the bell pepper plants (30 plants per plot). Crop set-up, procedures and variables were as follows.\n(§3) Transplants of ‘Tygress’ tomato plants and ‘Patriot’ bell pepper plants in the 4-true leaf stage (about 6 inches tall) were planted in raised beds in open-field plots. The cross-section of each raised bed was 28 inches wide at the top, 32 inches wide at the base, and 8 inches tall. Irrigation and non-micronutrient fertilizer were provided daily through two drip lines per bed (0.45 gal/100 ft bed/min) at recommended rates for tomato and bell pepper production in Florida. […] The height of the plants for each of the treatment groups was measured at 3 weeks after transplantation (WAT), just prior to treatment with the experimental foliar fertilizers.\n(§4) All foliar fertilizers except BIOX-CM were applied to the various treatment groups at 3 weeks after transplantation (WAT) and again at 5 WAT. The BIOX-CM treatment was applied at 4 and 5 WAT. The working water volume was 60 gal/acre and a non-ionic surfactant (Ad-Spray 80) was added in the amount of 2 pints/100 gal water. All plots were sprayed with sprayers pressurized at 25 psi and the canopies of both crops were covered with the micronutrient solutions. Treated plots were isolated during foliar fertilizer application to avoid the cross-contamination of other treatments on adjoining plots.\n(§5) Leaf samples were collected from the most recent mature leaves from each plant at 6 WAT (2 weeks after initial treatment). Foliar tissue analysis was performed by a commercial laboratory to determine the concentration of N, P, K, Mg, Ca, B, Zn, Mn, Fe, and Cu. Tomato marketable fruit weights were collected at 10 and 12 WAT, and the fruits were graded according to USDA standards. Pepper marketable fruit weights were determined beginning at 5 WAT over 5 weekly harvests. Fruit mineral analysis (N, P, K, Mg, Ca, B, Zn, Mn, Fe, and Cu) was performed on samples from the tomato harvest.\n(§6) The experimental design was a randomized complete block design with 5 replications for each treatment. All comparison data were analyzed using a general linear model and the means of each treatment were separated with a Fisher's protected LSD test at the 5% significance level."}, "[2]": {"system": "Aristotle bell pepper", "experimental": "(§7) The following experiments were performed in a green house during the fall of 2007 at GCREC, Balm, University of Florida. Fifteen products, at 3 different application rates were examined. The plot size was 2-gallon pots. Crop set-up, procedures and variables were as follows.\n(§8) Transplants of ‘Florida-47’ tomato and ‘Aristotle’ bell pepper plants in the 4-true leaf stage (about 6 inches tall) were planted in 2-gal pots on Aug. 27, 2007. Pots were filled with a commercially available planting medium. This medium was selected based on the mineral composition of the products to be applied without providing significant nutritional inputs to the crops. Irrigation was provided with drip lines delivering between 0.50 and 0.33 gal/day/pot for tomato and bell pepper, respectively, and the crops were irrigated three times per day. No foliar pesticides were necessary.\n(§9) There were four control treatments corresponding to each target micronutrient in which non-Fe, non-Mn, non-Zn or non-Cu pots received all other essential nutrients under non-limiting conditions.\n(§10) Treatments were applied at three rates (high, medium and low) obtained from the estimated concentration of Zn, Fe, Cu, and Mn foliarly-applied in tomato and bell pepper in field situations (Table 1). Products were weighed and dissolved in 200 ml of deionized water with a non-ionic surfactant and applied to the newly-matured open leaves of each crop at 3 and 7 weeks after transplant (WAT). Treated pots were isolated during application to avoid cross-contamination of other treatments.\n(§11) Medium nutrient concentration was determined 1 week before treatment. The mineral composition of the medium was 26.8 ppm NH4—N, 49 ppm NO3—N, 15.8 ppm P, 91.2 ppm K, 82.3 ppm Ca, 58.2 ppm Mg, 23.9 ppm Na, 125.6 ppm S, 1.33 ppm Fe, 0.39 ppm Mn, 0.35 ppm Zn, 0.05 pp, Cu, 0.04 ppm B, 0 ppm Mo, 0.73 ppm Al, and 12.1 ppm Si. The pH of the medium was 5.36 and the electric conductivity was 1.38 mS/cm. The foliar tissue analysis was performed at 6 WAT and the concentration of N, P, K, Mg, Ca, S, B, Zn, Mn, Fe, and Cu was determined by a commercial laboratory. Plant toxicity was determined at 4 WAT by using a 0-10 visual scale, where 0=no visible damage and 10=total plant death. Marketable fruit weight was collected 2 times in bell pepper and 4 times in tomato following USDA standards.\n(§12) Data were analyzed using a general linear model, and means were separated using orthogonal contrasts at the 5% significance level."}, "[3]": {"system": "Florida-47 tomato", "experimental": "as §7, §8, §9, §10, §11, §12"}, "[4]": {"system": "Tygress tomato plants", "assay": "Foliar nutrient concentration 2 weeks after treatment, greenhouse tomato (Examples 4-6)", "experimental": "(§13) The following experiments were performed in a green house during the fall of 2008 and spring of 2009 at GCREC, Balm, University of Florida. Crop set-up, procedures and variables were as follows.\n(§14) Transplants of Tygress' tomato plants were planted in 2-gallon pots filled with commercial planting medium with nutrient concentration of Fe, Zn, Mn, Cu being negligible and insufficient for crop growth. Irrigation and non-micronutrient fertilizer were provided daily through microsprinklers at recommended rates for tomato production in Florida. No pesticides were used. Treatments were as described in Tables 4, 5 and 6 below.\n(§15) Treatments were applied at 5 WAT (weeks after transplanting) using a water volume of 200 mL/plant. A non-ionic surfactant was added. Foliar tissue analysis was performed at 3 and 7 WAT on the non-applied newest leaves. The concentrations of N, P, K, Mg, Ca, B, Zn, Mn, Fe, and Cu in the foliar tissue were determined from foliar analysis by a commercial laboratory at 2 weeks before treatment and again at 2 weeks after treatment.\n(§16) Deionized water was used for foliar applications, and other nutrients were applied as appropriate under non-limiting conditions. Marketable fruit were collected three times during the growing season, starting at 10 WAT (5 weeks after the initial treatment). Tomato fruit was graded as extra-large, large and medium. Non-marketable fruit were harvested and number and weight recorded but not sized.\n(§17) Experimental design was a randomized complete block design with 6 replications. Data were analyzed using a general linear model, and means were separated using an LSD test at the 5% significance level."}, "[5]": {"system": "Tygress tomato plants", "assay": "Yields of tomato fruits, greenhouse (Examples 4-6)", "experimental": "as §13, §14, §15, §16, §17"}, "[6]": {"system": "Tygress tomato plants", "assay": "Foliar nutrient concentration at 6 WAT, open-field tomato (Examples 7-10)", "experimental": "as §1, §2, §3, §4, §5, §6"}, "[7]": {"system": "Tygress tomato plants", "assay": "Nutrient concentration of tomato fruits at 10 WAT, open field (Examples 7-10)", "experimental": "as §1, §2, §3, §4, §5, §6"}, "[8]": {"system": "Patriot bell pepper plants", "assay": "Marketable yield, open-field bell pepper (Examples 7-10)", "experimental": "as §1, §2, §3, §4, §5, §6"}, "[9]": {"system": "Tygress tomato plants", "assay": "Marketable yield, open-field tomato (Examples 7-10)", "experimental": "as §1, §2, §3, §4, §5, §6"}}}
{"smiles": "O=S(=O)([O-])[O-].[Zn+2]", "note": "[BIOX-INZ, zinc sulfate]", "values": [{"measurement": "Foliar B concentration of bell pepper plants", "setting": "[1]", "result": 57, "unit": "ppm"}, {"measurement": "Foliar Cu concentration of bell pepper plants", "setting": "[1]", "result": 385, "unit": "ppm"}, {"measurement": "Foliar Fe concentration of bell pepper plants", "setting": "[1]", "result": 116, "unit": "ppm"}, {"measurement": "Foliar K concentration of bell pepper plants", "setting": "[1]", "result": 3.2, "unit": "%"}, {"measurement": "Foliar Mg concentration of bell pepper plants", "setting": "[1]", "result": 0.53, "unit": "%"}, {"measurement": "Foliar Mn concentration of bell pepper plants", "setting": "[1]", "result": 303, "unit": "ppm"}, {"measurement": "Foliar N concentration of bell pepper plants", "setting": "[1]", "result": 3.9, "unit": "%"}, {"measurement": "Foliar P concentration of bell pepper plants", "setting": "[1]", "result": 0.22, "unit": "%"}, {"measurement": "Foliar Zn concentration of bell pepper plants", "setting": "[1]", "result": 64, "unit": "b ppm"}, {"measurement": "Pepper toxicity", "setting": "[2]", "result": 0}, {"measurement": "Tomato toxicity", "setting": "[3]", "result": 0}, {"measurement": "B concentration in tomato leaves", "setting": "[4]", "result": 24, "unit": "ppm"}, {"measurement": "Cu concentration in tomato leaves", "setting": "[4]", "result": 5, "unit": "ppm"}, {"measurement": "Fe concentration in tomato leaves", "setting": "[4]", "result": 97, "unit": "ppm"}, {"measurement": "Foliar Zn concentration", "setting": "[4]", "result": 768, "unit": "a ppm"}, {"measurement": "K concentration in tomato leaves", "setting": "[4]", "result": 3.5, "unit": "%"}, {"measurement": "Mg concentration in tomato leaves", "setting": "[4]", "result": 0.3, "unit": "%"}, {"measurement": "Mn concentration in tomato leaves", "setting": "[4]", "result": 55, "unit": "ppm"}, {"measurement": "N concentration in tomato leaves", "setting": "[4]", "result": 3.6, "unit": "%"}, {"measurement": "P concentration in tomato leaves", "setting": "[4]", "result": 0.4, "unit": "%"}, {"measurement": "Marketable yield", "setting": "[5]", "result": 3.7, "unit": "a lb/plant"}, {"measurement": "Foliar B concentration of tomato plants", "setting": "[6]", "result": 41, "unit": "ppm"}, {"measurement": "Foliar Cu concentration of tomato plants", "setting": "[6]", "result": 358, "unit": "ppm"}, {"measurement": "Foliar Fe concentration of tomato plants", "setting": "[6]", "result": 71, "unit": "ppm"}, {"measurement": "Foliar K concentration of tomato plants", "setting": "[6]", "result": 5.7, "unit": "%"}, {"measurement": "Foliar Mg concentration of tomato plants", "setting": "[6]", "result": 0.58, "unit": "%"}, {"measurement": "Foliar Mn concentration of tomato plants", "setting": "[6]", "result": 231, "unit": "ppm"}, {"measurement": "Foliar N concentration of tomato plants", "setting": "[6]", "result": 4.8, "unit": "%"}, {"measurement": "Foliar P concentration of tomato plants", "setting": "[6]", "result": 0.18, "unit": "%"}, {"measurement": "Foliar Zn concentration of tomato plants", "setting": "[6]", "result": 323, "unit": "ab ppm"}, {"measurement": "Foliar Zn concentration of tomato plants, statement", "setting": "[6]", "result": "highest foliar concentration of Zn"}, {"measurement": "B concentration of tomato fruits", "setting": "[7]", "result": 21, "unit": "ppm"}, {"measurement": "Cu concentration of tomato fruits", "setting": "[7]", "result": 21, "unit": "ppm"}, {"measurement": "Fe concentration of tomato fruits", "setting": "[7]", "result": 85, "unit": "ppm"}, {"measurement": "K concentration of tomato fruits", "setting": "[7]", "result": 7.5, "unit": "%"}, {"measurement": "Mg concentration of tomato fruits", "setting": "[7]", "result": 0.34, "unit": "%"}, {"measurement": "Mn concentration of tomato fruits", "setting": "[7]", "result": 38, "unit": "ppm"}, {"measurement": "N concentration of tomato fruits", "setting": "[7]", "result": 4.2, "unit": "%"}, {"measurement": "P concentration of tomato fruits", "setting": "[7]", "result": 0.59, "unit": "%"}, {"measurement": "Zn concentration of tomato fruits", "setting": "[7]", "result": 496, "unit": "ppm"}, {"measurement": "Marketable yield, Bell Pepper", "setting": "[8]", "result": 6.9, "unit": "ton/acre"}, {"measurement": "Marketable yield, Tomato", "setting": "[9]", "result": 15.6, "unit": "ton/acre"}]}
